Experiment [1] addresses T1, human CCR2 (Homo sapiens, UniProt P41597).
T1 construct: host or cells: Chem-1 cell line
T1 sequence (P41597 1-360 isoform P41597-2): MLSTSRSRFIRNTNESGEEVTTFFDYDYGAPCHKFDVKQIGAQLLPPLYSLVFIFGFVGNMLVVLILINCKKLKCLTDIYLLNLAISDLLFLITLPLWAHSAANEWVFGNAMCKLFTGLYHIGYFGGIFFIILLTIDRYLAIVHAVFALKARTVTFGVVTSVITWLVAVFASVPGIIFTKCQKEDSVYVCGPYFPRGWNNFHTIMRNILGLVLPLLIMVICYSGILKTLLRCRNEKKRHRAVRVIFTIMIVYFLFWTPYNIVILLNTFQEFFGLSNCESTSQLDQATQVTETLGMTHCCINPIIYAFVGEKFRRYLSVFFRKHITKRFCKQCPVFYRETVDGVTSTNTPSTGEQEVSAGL
Nature of the experiment: Functional Ca2+ release test (B-1). It counts as cell-based. Particulars: Chem-1 cell line transfected with human CCR2; 50% inhibition of the MCP-1 effect, MCP-1 at EC50 (about 5 nM); in some cases means of several determinations. The protocol:
The antagonistic action of test substances on CCR2 was determined in a functional Ca^2+ release test. Binding of CCL2/MCP-1 to CCR2 leads to a change in the conformation of the receptor resulting in Gi/Gq protein activation and intracellular signal cascade. This involves, inter alia, an intracellular Ca^2+ release. The test cell used was a Chem-1 cell line transfected with human CCR2 (ChemiSCREEN™ CCR2B Calcium-Optimized FLIPR Cell Line, Merck Millipore).
(§1) The test substances were dissolved in dimethyl sulphoxide (DMSO) at a concentration of 10 mM and serially diluted with DMSO in steps of 1:3.16 for a 10-point dose/activity analysis. According to the desired test concentrations, the substances were pre-diluted in Tyrode with 2 mM CaCl2 and 0.05% BSA.
The cells, cultivated in DMEM high glucose [supplemented with 10% FCS, 1 mM pyruvate, 15 mM HEPES, 500 μg/ml geniticin and non-essential amino acids (NEAA)], were sown at 5000 cells/25 μl in 384 well, μCLEAR/black cell culture plates from Greiner (#781092) and incubated at 37° C. for 24 h. The sowing medium consisted of DMEM high glucose [supplemented with 5% FCS, 1 mM pyruvate, 15 mM HEPES, 50 U/ml penicillin, 50 μg/ml streptomycin and non-essential amino acids (NEAA)]. The medium was then removed and the cells were charged for 60 min at 37° C. with Fluo-4 dye [25 μl Tyrode with 3 μM Fluo-4 AM (1 mM DMSO stock solution), 0.4 mg/ml Brilliant Black, 2.5 mM probenicid, 0.03% Pluronic F-127]. The cells were pre-incubated for 10 min with 10 μl of the test substances diluted in buffer, and 20 μl of agonist solution (MCP-1 in Tyrode with 0.05% BSA) were then added. MCP-1 was employed at the concentration which corresponds to the EC50 which had been determined in a preliminary test (usually about 5 nM). Ca^2+ release was monitored over a period of 120 s in 1 s increments in a proprietary fluorescence imaging reader. The molar concentration of the test substance which caused 50% inhibition of the MCP-1 effect (IC50) was determined using a 4-parameter logistic function (Hill function).

The target of experiment [2] is T2, murine CCR2 (Mus musculus, UniProt P51683).
T2 construct: host or cells: U2OS β-arrestin cell line
As to the kind of experiment: Functional β-arrestin recruiting test with murine MCP-1 (B-2b). It counts as cell-based. Particulars: U2OS β-arrestin cell line transfected with murine CCR2; agonist murine MCP-1; in some cases means of several determinations. The protocol:
The antagonistic action of test substances on CCR2 was determined in a β-arrestin test. The PathHunter β-arrestin GPCR test system (DiscoveRx Corporation, Ltd.) is a cell-based functional method for detecting binding of β-arrestin to an activated receptor. The molecular basis is a […] complementation measured by the enzymatic conversion of a chemiluminescent substrate. The test cell used was a U2OS β-arrestin cell line transfected with murine CCR2 (93-0543C3, DiscoveRx Corporation, Ltd.).
as §1
The cells, cultivated in MEM Eagle (supplemented with 10% FCS, 50 U/ml of penicillin, 50 μg/ml of streptomycin, 250 μg/ml of hygromycin and 500 μg/ml of geniticin), were sown at 2000 cells/25 μl in 384 well, μCLEAR/black cell culture plates from Greiner (#781092) and incubated at 37° C. for 24 h. The sowing medium consisted of Opti-MEM (supplemented with 1% FCS, 50 U/ml of penicillin and 50 μg/ml of streptomycin). The cells were pre-incubated for 10 min with 10 μl of the test substances diluted in buffer, and 10 μl of agonist solution [human MCP-1 (PeproTech, #300-04) in Tyrode with 0.05% BSA) were then added. The human MCP-1 was employed at the concentration which corresponds to the EC50 which had been determined in a preliminary test (usually about 3 nM). After 90 min of incubation at 37° C., the solution was removed, and recruitment of β-arrestin to CCR2 was detected with the aid of the PathHunter detection reagent (93-001, DiscoveRx Corporation, Ltd.) according to the instructions of the manufacturer. Luminescence was measured after an incubation time of 60 min using a proprietary luminescence imaging measuring instrument. The molar concentration of the test substance which caused 50% inhibition of the MCP-1 effect (IC50) was determined using a 4-parameter logistic function (Hill function).
The test was carried out in a manner identical to that described above under B-2a, but using murine MCP-1 (PeproTech, #250-10) as agonist.
In general terms: Activated receptors often draw arrestin, which recruitment assays turn into a signal.

Experimental findings from US20160237059A1, “HETEROCYCLIC SUBSTITUTED TRIFLUOROMETHYL PYRIMIDINONES AND THEIR USE” (BAYER PHARMA AKTIENGESELLSCHAFT, priority 2013, published 2016) are described below.

Molecules are shown by their SMILES.

T2 sequence (P51683 whole entry): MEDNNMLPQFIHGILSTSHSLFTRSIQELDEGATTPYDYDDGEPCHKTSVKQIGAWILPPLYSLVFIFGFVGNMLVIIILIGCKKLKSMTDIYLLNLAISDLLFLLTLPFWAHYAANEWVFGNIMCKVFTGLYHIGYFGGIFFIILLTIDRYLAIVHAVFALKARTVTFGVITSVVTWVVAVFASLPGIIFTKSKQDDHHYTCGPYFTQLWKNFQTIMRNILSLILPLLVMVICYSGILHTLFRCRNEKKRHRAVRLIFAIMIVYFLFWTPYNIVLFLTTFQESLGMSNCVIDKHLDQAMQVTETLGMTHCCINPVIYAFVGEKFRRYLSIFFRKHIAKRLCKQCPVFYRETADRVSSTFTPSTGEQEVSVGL

What is called IC50 is the concentration needed to halve the response being measured. Low values mean inhibition by little substance, high ones a need for much substance. Take `COc1cccc(-c2nc(C(F)(F)F)c(Oc3ccc(Cl)c(Cl)c3)c(=O)[nH]2)n1` [Example 144, 5-(3,4-dichlorophenoxy)-2-(6-methoxypyridin-2-yl)-6-(trifluoromethyl)pyrimidin-4(3H)-one]: the IC50 in experiment [1] was found to be 0.017 µM; in experiment [2] it was 0.759 µM.

Regarding `O=c1[nH]c(-c2cccnn2)nc(C(F)(F)F)c1Oc1ccc(Cl)c(Cl)c1` [Example 125, 5-(3,4-dichlorophenoxy)-2-(pyridazin-3-yl)-6-(trifluoromethyl)pyrimidin-4(3H)-one], the values for the IC50 in experiment [1] and in experiment [2] were 0.0095 µM and 0.475 µM, respectively.

In the case of `COc1ccc2c(-c3nc(C(F)(F)F)c(Oc4ccc(Cl)c(Cl)c4)c(=O)[nH]3)noc2c1` [Example 208], the values for the half-inhibitory concentration (IC50) in experiment [1] and in experiment [2] were 0.077 µM and 9.58 µM, respectively.

`Nc1ncc(-c2nc(C(F)(F)F)c(Oc3ccc(Cl)c(Cl)c3)c(=O)[nH]2)cn1` [Example 154, 2′-amino-5-(3,4-dichlorophenoxy)-6-(trifluoromethyl)-2,5′-bipyrimidin-4(3H)-one]: the IC50 was 0.037 µM in experiment [1] and 1.93 µM in experiment [2].

Take `COc1nn(C)cc1-c1nc(C(F)(F)F)c(Oc2ccc(Cl)c(Cl)c2)c(=O)[nH]1` [Example 236]: the IC50 in experiment [1] came out at 0.692 µM; in experiment [2] it was 0.72 µM.

With `O=c1[nH]c(-c2n[nH]c3ccccc23)nc(C(F)(F)F)c1Oc1ccc(Cl)c(Cl)c1` [Example 139, 5-(3,4-Dichlorophenoxy)-2-(1H-indazol-3-yl)-6-(trifluoromethyl)pyrimidin-4(3H)-one], the IC50 worked out at 0.0007 µM in experiment [1] and 0.229 µM in experiment [2].

With `O=c1[nH]c(-c2ncccc2OC(F)(F)F)nc(C(F)(F)F)c1Oc1ccc(Cl)c(C(F)(F)F)c1` [Example 204], the IC50 in experiment [1] was 0.0092 µM; in experiment [2] it was 0.282 µM.

Take `CN(C)c1ccc(-c2nc(C(F)(F)F)c(Oc3ccc(Cl)c(C(F)(F)F)c3)c(=O)[nH]2)nn1` [Example 201]: the IC50 in experiment [1] stood at 0.0007 µM; in experiment [2], 0.3 µM.

Regarding `O=c1[nH]c(-c2ccncc2Cl)nc(C(F)(F)F)c1Oc1ccc(Cl)c(Cl)c1` [Example 124, 2-(3-chloropyridin-4-yl)-5-(3,4-dichlorophenoxy)-6-(trifluoromethyl)pyrimidin-4(3H)-one], the IC50 stood at 0.0029 µM in experiment [1] and 0.32 µM in experiment [2].

Take `CSc1cccnc1-c1nc(C(F)(F)F)c(Oc2ccc(Cl)c(C(F)(F)F)c2)c(=O)[nH]1` [Example 114]: the IC50 was 0.0001 µM in experiment [1] and 0.0061 µM in experiment [2].

With `Nc1ccn(-c2nc(C(F)(F)F)c(Oc3ccc(Cl)c(Cl)c3)c(=O)[nH]2)n1` [Example 256, 2-(3-Amino-1H-pyrazol-1-yl)-5-(3,4-dichlorophenoxy)-6-(trifluoromethyl)pyrimidin-4(3H)-one], the IC50 was 0.0008 µM in experiment [1] and 0.1 µM in experiment [2].

Regarding `Cc1cc(-c2nc(C(F)(F)F)c(Oc3ccc(Cl)c(C(F)(F)F)c3)c(=O)[nH]2)nn1C` [Example 170, 5-[4-chloro-3-(trifluoromethyl)phenoxy]-2-(1,5-dimethyl-1H-pyrazol-3-yl)-6-(trifluoromethyl)pyrimidin-4(3H)-one], the IC50 in experiment [1] came to 0.0007 µM; in experiment [2], 0.084 µM.

On to `Cc1ccc(Oc2c(C(F)(F)F)nc(-c3cc[nH]n3)[nH]c2=O)cc1Cl` [Example 224], for which the IC50 worked out at 0.0003 µM in experiment [1] and 0.047 µM in experiment [2].

With `Nc1ccnc(-c2nc(C(F)(F)F)c(Oc3ccc(Cl)c(Cl)c3)c(=O)[nH]2)c1` [Example 128, 2-(4-aminopyridin-2-yl)-5-(3,4-dichlorophenoxy)-6-(trifluoromethyl)pyrimidin-4(3H)-one], the IC50 is 0.0032 µM in experiment [1] and 0.36 µM in experiment [2].

For the molecule `O=c1[nH]c(-c2ccc(Cl)cn2)nc(C(F)(F)F)c1Oc1ccc(Cl)c(C(F)(F)F)c1` [Example 195, 2-(5-chloropyridin-2-yl)-5-[4-chloro-3-(trifluoromethyl)phenoxy]-6-(trifluoromethyl)pyrimidin-4(3H)-one], the IC50 in experiment [1] is 0.0011 µM; in experiment [2], 0.157 µM.

As to `O=c1[nH]c(-c2cccnn2)nc(C(F)(F)F)c1Oc1ccc(Cl)c(C(F)(F)F)c1` [Example 118, 5-[4-chloro-3-(trifluoromethyl)phenoxy]-2-(pyridazin-3-yl)-6-(trifluoromethyl)pyrimidin-4(3H)-one], the IC50 worked out at 0.0004 µM in experiment [1] and 0.073 µM in experiment [2].

`O=c1[nH]c(-c2nsc(Cl)c2Cl)nc(C(F)(F)F)c1Oc1ccc(Cl)c(Cl)c1` [Example 227]: the concentration for half-maximal inhibition (IC50) in experiment [1] amounted to 0.0064 µM; in experiment [2], 0.164 µM.

For the molecule `COc1cc(C)nc(-c2nc(C(F)(F)F)c(Oc3ccc(Cl)c(C(F)(F)F)c3)c(=O)[nH]2)n1` [Example 184, 5-[4-chloro-3-(trifluoromethyl)phenoxy]-4′-methoxy-6′-methyl-6-(trifluoromethyl)-2,2′-bipyrimidin-4(3H)-one], the IC50 in experiment [1] is 0.0008 µM; in experiment [2], 0.221 µM.

Turning to `CCn1ccc(-c2nc(C(F)(F)F)c(Oc3ccc(Cl)c(C(F)(F)F)c3)c(=O)[nH]2)n1` [Example 240], the figures for the IC50 in experiment [1] and in experiment [2] were 0.0005 µM and 0.107 µM, respectively.

Take `COc1nn(C)cc1-c1nc(C(F)(F)F)c(Oc2ccc(Cl)c(C(F)(F)F)c2)c(=O)[nH]1` [Example 235]: the results for the IC50 in experiment [1] and in experiment [2] were 0.02 µM and 0.796 µM, respectively.

On to `CC(C)(C)Oc1cccc(-c2nc(C(F)(F)F)c(Oc3ccc(Cl)c(C(F)(F)F)c3)c(=O)[nH]2)n1` [Example 151, 2-(6-tert-butoxypyridin-2-yl)-5-[4-chloro-3-(trifluoromethyl)phenoxy]-6-(trifluoromethyl)pyrimidin-4(3H)-one], for which the IC50 was 0.096 µM in experiment [1] and 3.68 µM in experiment [2].

Turning to `CSc1ccnc(-c2nc(C(F)(F)F)c(Oc3ccc(Cl)c(C(F)(F)F)c3)c(=O)[nH]2)c1` [Example 191, 5-[4-chloro-3-(trifluoromethyl)phenoxy)-2-[4-(methylsulphanyl)pyridin-2-yl]-6-(trifluoromethyl)pyrimidin-4(3H)-one], the IC50 in experiment [1] was 0.005 µM; in experiment [2] it was 0.693 µM.

Consider `CN(C)c1ccc(-c2nc(C(F)(F)F)c(Oc3ccc(Cl)c(Cl)c3)c(=O)[nH]2)nc1` [Example 133, 5-(3,4-dichlorophenoxy)-2-[5-(dimethylamino)pyridin-2-yl]-6-(trifluoromethyl)pyrimidin-4(3H)-one], for which the results for the IC50 in experiment [1] and in experiment [2] were 0.0008 µM and 21.7 µM, respectively.
